Source: publication PMC12409821, “Synthesis and Characterization of Co(II), Cu(II), and Ni(II) Complexes of 2,2′‐Bipyridine‐4,4′‐Dicarboxamide Ligands: Antibacterial Evaluation Against Resistant Bacteria and Enzyme Inhibition” (ChemistryOpen, 2025)

Assays:
pancreatic lipase = target: T1, pancreatic lipase (Homo sapiens, UniProt P16233); test: In vitro lipase inhibition assay; assay type: biochemical
T1 sequence (P16233 17-465): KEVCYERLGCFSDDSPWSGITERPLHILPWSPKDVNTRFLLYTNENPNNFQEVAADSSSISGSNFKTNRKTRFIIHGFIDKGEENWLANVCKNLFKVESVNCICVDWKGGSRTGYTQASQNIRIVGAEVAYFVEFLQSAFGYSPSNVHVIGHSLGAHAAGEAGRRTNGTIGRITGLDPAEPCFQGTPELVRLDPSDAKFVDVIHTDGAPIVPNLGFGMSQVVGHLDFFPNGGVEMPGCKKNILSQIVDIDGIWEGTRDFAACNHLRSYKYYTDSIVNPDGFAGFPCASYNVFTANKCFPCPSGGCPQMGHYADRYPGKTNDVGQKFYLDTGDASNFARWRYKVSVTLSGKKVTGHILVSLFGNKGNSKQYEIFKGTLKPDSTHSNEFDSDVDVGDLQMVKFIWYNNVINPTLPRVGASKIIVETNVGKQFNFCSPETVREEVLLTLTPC
Experimental: (§1) In cholinesterase activity measurements, the method reported by Karagecili and coworkers was used with minor modifications.^[ [23] ^] Here, acetylchoiniodate was used as a substrate for both enzymes. Lipase enzyme activity measurement was performed according to the method reported by Bulut.^[ [24] ^] In inhibition studies, measurements were made at at least five different concentrations of the molecules synthesized. %activity values were calculated by accepting enzyme activity measurements without inhibitor as 100%. Then, molecule concentrations were plotted against Activity% values.

[1] = target: acetylcholinesterase (AChE) (Homo sapiens, UniProt P22303); test: biochemical; conditions: at least five concentrations
Chain of acetylcholinesterase (AChE) (P22303 32-614, species assumed): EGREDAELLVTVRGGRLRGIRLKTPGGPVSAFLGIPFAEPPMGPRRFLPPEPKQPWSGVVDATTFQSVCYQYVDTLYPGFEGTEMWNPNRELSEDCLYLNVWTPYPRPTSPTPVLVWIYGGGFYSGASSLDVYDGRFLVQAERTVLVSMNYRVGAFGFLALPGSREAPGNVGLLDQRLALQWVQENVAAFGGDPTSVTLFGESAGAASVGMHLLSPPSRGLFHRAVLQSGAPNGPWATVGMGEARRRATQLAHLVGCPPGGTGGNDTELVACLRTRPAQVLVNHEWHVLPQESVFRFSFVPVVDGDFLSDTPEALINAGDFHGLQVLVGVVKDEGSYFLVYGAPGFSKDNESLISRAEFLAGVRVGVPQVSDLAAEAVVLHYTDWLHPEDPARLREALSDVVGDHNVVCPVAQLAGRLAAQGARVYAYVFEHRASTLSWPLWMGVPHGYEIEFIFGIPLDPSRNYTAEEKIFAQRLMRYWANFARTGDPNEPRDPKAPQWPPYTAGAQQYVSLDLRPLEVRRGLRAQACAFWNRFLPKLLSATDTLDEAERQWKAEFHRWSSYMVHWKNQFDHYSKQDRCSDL
Experimental: as §1

[2] = target: butyrylcholinesterase (BChE) (Homo sapiens, UniProt P06276); test: biochemical; conditions: at least five concentrations
Chain of butyrylcholinesterase (BChE) (P06276 29-602, species assumed): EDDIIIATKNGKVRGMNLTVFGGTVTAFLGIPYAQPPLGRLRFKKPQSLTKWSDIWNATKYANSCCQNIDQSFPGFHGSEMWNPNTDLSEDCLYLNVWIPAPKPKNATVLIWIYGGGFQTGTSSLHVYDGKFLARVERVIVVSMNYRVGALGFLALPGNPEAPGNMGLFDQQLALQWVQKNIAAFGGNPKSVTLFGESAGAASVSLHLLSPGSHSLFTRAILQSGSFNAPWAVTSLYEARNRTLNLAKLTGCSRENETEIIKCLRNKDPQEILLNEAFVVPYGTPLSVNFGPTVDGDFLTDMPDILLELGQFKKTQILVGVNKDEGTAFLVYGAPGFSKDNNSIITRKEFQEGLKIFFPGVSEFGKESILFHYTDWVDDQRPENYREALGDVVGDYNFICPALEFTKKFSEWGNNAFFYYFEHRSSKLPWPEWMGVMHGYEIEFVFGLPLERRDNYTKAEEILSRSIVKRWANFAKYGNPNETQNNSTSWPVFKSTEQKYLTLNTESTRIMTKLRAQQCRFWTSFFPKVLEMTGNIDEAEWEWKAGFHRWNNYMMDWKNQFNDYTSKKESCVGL
Experimental: as §1

SMILES | Effect on lipase in the concentration ranges studied (pancreatic lipase; no IC50 given in Table 5) | IC50 [1] | IC50 [2] | IC50 (pancreatic lipase; at least five concentrations)
O=C(NCc1ccccn1)c1ccnc(-c2cc(C(=O)NCc3ccccn3)ccn2)c1 [L1, N4,N4′‐bis(pyridin‐2‐ylmethyl)‐[2,2′‐bipyridine]‐4,4′‐dicarboxamide] | did not show a linear effect | 173 µM | 68.1 µM | –
O=C(NCC1CCCCN1)c1ccnc(-c2cc(C(=O)NCC3CCCCN3)ccn2)c1 (stereo not drawn) [L2, N4,N4′‐bis(piperidin‐2‐ylmethyl)‐[2,2′‐bipyridine]‐4,4′‐dicarboxamide] | – | 10.2 µM | 8.83 µM | 24.1 µM
